Measured values published in US12303554B2, “Use of ultrarapid acting insulin” (MannKind Corporation, priority 2008, dated 2025).
Read-outs that look alike come from different tables or passages of the source.

Tests used:
[1] = cited from earlier work
[2] = 52-week clinical trial in type 1 diabetes: basal insulin + prandial TI Inhalation Powder vs basal insulin + SC insulin aspart; type: in vivo, human
From the text: A Prospective, Multi-Center, Open-Label, Randomized, Controlled Clinical Trial Comparing the Efficacy and Safety in Subjects with Type 1 Diabetes Receiving SC Basal Insulin and Prandial Inhalation of Insulin-FDKP Versus SC Basal and Prandial Insulin Over a 52-Week Treatment Period and a 4-Week Follow-up
This was a prospective, multi-country, multicenter, open label, randomized, controlled clinical trial comparing glycemic control in subjects with type 1 diabetes receiving basal insulin and prandial insulin-FDKP (TI) Inhalation Powder (TI Inhalation Powder group) with subjects receiving basal insulin and SC rapid-acting insulin aspart (comparator group). This study included a 52-week treatment phase and a 4-week follow-up phase. During the 4-week follow-up phase, pulmonary function and select clinical laboratory assessments were scheduled.
The study began with enrollment at Week −3. Subjects received a complete battery of safety and eligibility assessments, including HbA1c and fasting plasma glucose (FPG).
At Week −1, subjects were randomized to one of the following 2 treatments: • Basal insulin+prandial TI Inhalation Powder • Basal insulin+prandial SC rapid-acting insulin
At Week −1, subjects again completed the first three components of the Insulin Treatment Questionnaire (ITQ) for the purpose of assessing test-retest reliability only). After completing the questionnaire, subjects randomized to the TI Inhalation Powder group were trained on the MEDTONE® Inhaler using TECHNOSPHERE®/insulin (insulin-FDKP) inhalation powder; subjects in the comparator group were trained in the use of the NOVOLOG® pens; all subjects were trained in administration of LANTUS®. Additionally, all subjects were trained on a blood glucose monitoring (HBGM) meter provided at the beginning of the trial and diary and received diabetes education. Any training was repeated at Week 0, if needed.
At the beginning of the treatment phase, subjects had several titration/dose evaluation visits to adjust insulin therapy. Titration visits occurred once a week for the first 4 weeks. During Weeks 4 through 10, there were three telephone “visits” (at Week 6, Week 8, and Week 10) to titrate dose, if necessary. However, dose titration was allowed throughout the trial.
All subjects completed a 7-point blood glucose profile on any 3 days during the week immediately preceding each visit from Week 0 to Week 52. The 7 time points included samples from before breakfast and 2 hours after breakfast, before the mid-day meal and 2 hours after the mid-day meal, before the evening meal and 2 hours after the evening meal and at bedtime (7 time points a day, over 3 days). These blood glucose (BG) values were recorded in the HBGM diary that was collected at clinic visits. The diaries for Weeks 4 through 10 (during dose titration) which were discussed over the telephone were collected at the next office visits.
A meal challenge test was performed at Week 4 (during dose titration), Week 26, and Week 52. Meal challenge venous blood sampling times were: −30, 0, 30, 60, 90, 105, 120, 180, 240, 300, and 360 minutes. Blood glucose (BG) was also measured using HBGM glucose meters to aid the Investigator in treatment decisions and values were obtained at −30, 0, 60, and 120 minutes during the meal challenge.
Treatments for glycemic control used in the trial were the following: prandial insulin-FDKP (TI) inhalation powder, prandial insulin aspart, and basal insulin glargine. Subjects assigned to the TI Inhalation Powder group (TI Inhalation Powder in combination with basal insulin therapy) received sc basal insulin glargine (LANTUS®) once daily (at bedtime) and inhaled TI Inhalation Powder 3 to 4 times a day, immediately before main meals or a snack as based upon clinical need. Adjustment of the TI Inhalation Powder dose and frequency of use to greater than 3 times a day was at the discretion of the Investigator. […]

[3] = type: in vivo, human; settings: 10 U lispro
Protocol: Following the completion of the meal challenge, the data was analyzed as per the statistical analysis plan. […] The study was amended (A1) and included 12 subjects (10 were reenrolled from the first meal challenge), and only two treatments, which were 10 U lispro and 60 and 90 U TI. The doses were selected based on the relative bioavailability observed following the first meal challenge (OP), where under an assumption of linear kinetics, 10 U lispro and 60 U TI would result in similar exposure. The 90 U dose group was included to assess the effect of the highest dose group of TI studied in Phase 3 trials. Six of the 12 subjects received 60 U TI and the other 6 subjects received 90 U TI. All 12 subjects received 10 U lispro in a crossover fashion. […] Blood glucose concentrations were measured at regular intervals from arterialized venous blood samples. […] EGP was determined by measurement of 6,6-^2H2 glucose applying the modified calculations for the non-steady state ([…], and D. T. Stein. Calculating glucose fluxes during meal tolerance test: a new computational approach. Am. J. Physiol Endocrinol. Metab 293 (2):[…]-[…], 2007). C-peptide concentrations were measured pre- and post-dose to assess endogenous insulin secretion. In addition, glucagon and free fatty acid concentrations were also determined.

[4] = type: in vivo, human
Protocol: The insulin-FDKP formulation is administered to the subjects by oral inhalation using a MEDTONE® dry powder inhaler (MannKind Corp.). Methods and results below are described in terms of the Original Protocol (OP), which includes the meal challenge in 18 subjects with three treatments (EXUBERA®, lispro and TI) and Amendment 1 (A1), which includes 12 subjects treated with only TI and lispro. […] The subjects were screened and evaluated before, during and after the experiments and their data analyzed as described below. Subjects were selected based on several key inclusion criteria, including, male and female, having ≥18 and ≤70 years of age with clinical diagnosis of type 2 diabetes mellitus for ≥12 months. The subjects selected for the study also had stable anti-diabetic regimen with insulin for the previous 3 months; HbA1c ≤8.5%; Body Mass Index (BMI) between ≤34 kg/m^2 and ≥25 kg/m^2; urine cotinine ≤100 ng/mL; […] Criteria for exclusion from the study also included unstable diabetes control and/or evidence of serious complications of diabetes (e.g., autonomic neuropathy); serum creatinine >1.8 mg/dL in female subjects and >2.0 mg/dL in male subjects. Other clinically important pulmonary disease was confirmed by documented history or pulmonary function testing. Under OP, the study was planned to be a randomized, open label, 3-way cross-over study. […] At this analysis all patients at least had completed the meal challenge visits and only those data have been used. The screening visit(s) (V1) occurred 1 to 21 days before the first treatment visit (V2) with 7 to 21 days elapsing between treatment-visits (V2, V3, and V4) for the meal challenge test. A minimum of 8 weeks elapsed between V4 and the next treatment visit, (V6). An additional safety visit (V5) was scheduled 1-3 days prior to the first of 3 glucose clamp procedures (V6). The glucose clamp procedure occurred at 3 visits, Visits V6, V7, and V8, with 7 to 21 days elapsing between the visits. […] Each treatment visit during the meal challenge had the subjects hospitalized in the clinical unit the night before initiation of treatment. […] Each subject followed the same randomization order for the glucose-clamp procedures as for the meal challenge tests. During the study, periodic blood draws for determination of pharmacokinetic and/or pharmacodynamic parameters, and safety were taken beginning at 12 hours prior to onset of the treatment regimens and meal challenge, and thereafter for a period of 8 hours. […] Meal Challenge Test: BOOST PLUS® (12 fl. oz.) consisting of 67.5 g carbohydrate, 21 g protein, 21 g fat, energy content 540 kcal was used for the meal challenge test. The BOOST PLUS® was enriched with U-^13C-glucose to determine the amount of absorbed glucose. Concurrent enriched continuous infusion of 6,6-^2H2 glucose was used to assess endogenous glucose production EGP. […] Under OP, the dose for insulin lispro was selected based on information obtained from the regulatory label. The dose selected for EXUBERA® was obtained by means of back calculation of the most commonly used dose information presented to the FDA Advisory Committee in the EXUBERA® Briefing Document. […] Blood glucose concentrations were measured at regular intervals from arterialized venous blood samples. The amount of orally absorbed glucose was estimated by determination of U-^13C-glucose. EGP was determined by measurement of 6,6-^2H2 glucose applying the modified calculations for the non-steady state ([…], and D. T. Stein. Calculating glucose fluxes during meal tolerance test: a new computational approach. Am. J. Physiol Endocrinol. Metab 293 (2):[…]-[…], 2007). C-peptide concentrations were measured pre- and post-dose to assess endogenous insulin secretion. In addition, glucagon and free fatty acid concentrations were also determined.

[5] = 52 weeks, + basal insulin glargine
[6] = 52 weeks, + basal insulin, baseline 187.6 (SD 85.1) TI, 180.8 (SD 86.9) comparator
[7] = 45 U insulin-FDKP, 4 mg EXUBERA, 12 U lispro, FIG. 6

Regular human insulin: regular human insulin preparations for subcutaneous injection, considered short acting
Duration of significant elevation or activity ([1]; subcutaneous injection): 10 to 12 h

insulin aspart
Median Tmax ([1]; subjects with type 1 diabetes, prescribing information): 40 to 50 min
Percentage of subjects whose HbA1c level decreased to ≤6.5% [2, 5]: 7.31%
Percentage of subjects whose HbA1c level decreased to ≤7.0% [2, 5]: 15.98%
Percentage of subjects whose HbA1c level decreased to ≤8.0% [2, 5]: 56.16%
Mean FPG at the end of the treatment period [2, 6]: 161.3 (SD 68.2) mg/dL
Mean decrease in fasting plasma glucose (FPG) over the treatment period [2, 6]: 23.4 (SD 103.1) mg/dL
HbA1c at Week 14 ([2]; + basal insulin glargine, baseline 8.41 (SD 0.92) TI arm, 8.48 (SD 0.97) insulin aspart arm): 8.07 (SD 1.09) %
Average body weight gain ([2]; over the 52-week treatment period, + basal insulin): 1.4 kg

insulin glulisine: rapid acting insulin analog
Range of Tmax ([1]; type 1 and type 2 diabetes populations, prescribing information): 40 to 120 min

insulin lispro: rapid acting insulin analog, subcutaneously administered (Eli Lilly & Co.)
Time of peak glucose disappearance rate after dosing ([3]; 60 U and 90 U insulin-FDKP, FIG. 11): about 100 minutes
Time of peak inhibition of endogenous glucose production following dosing ([3]; 60 U or 90 U insulin-FDKP (two treatments, dose assignment not stated), FIG. 10): about 100 minutes
Time post-treatment at which (further) glucose infusion was needed to remain above 90 mg/dL ([4]; 45 U insulin-FDKP inhaled, 4 mg EXUBERA inhaled, 12 U lispro sc at onset of meal): ~3 h
Time of peak inhibition of endogenous glucose production after treatment ([4]; 45 U insulin-FDKP, 4 mg EXUBERA, 12 U lispro, FIG. 5): about 80 minutes
Time of peak glucose disappearance rate after dosing [4, 7]: about 120 minutes
Time post dosing at which glucose disappearance rate became substantial / departed from baseline [4, 7]: about 30 minutes
Total insulin exposure, greater than following 45 U insulin-FDKP (TI) or 4 mg EXUBERA ([4]; human, in vivo): approximately 40%
Insulin concentration tmax (median) ([4]; human, in vivo, 4 mg): 75 min
